We go through 24 compounds from patent publication EP2253617A1, “Halogenated compounds as pesticides” (Bayer CropScience AG, priority 2009, dated 2010).

The chromatographic logP is a lipophilicity value derived from retention on a column. A higher chromatographic logP goes with a more lipophilic compound.

Series [1] is described as follows: physchem.
For another series, the system named is Spodoptera frugiperda. The experiment in a line: Spodoptera frugiperda test (SPODFR spray treatment). The format is in vivo. Particulars: 500 g/ha, sprayed maize leaf discs, caterpillars, after 7 days; 100 % = all caterpillars killed. The source says:
Spodoptera frugiperda-Test (SPODFR Spritzbehandlung)
(§1) • Lösungsmittel: 78,0 GewichtsteileAceton 1,5 Gewichtsteile Dimethylformamid • Emulgator: 0,5 Gewichtsteile Alkylarylpolyglykolether
(§2) Zur Herstellung einer zweckmäßigen Wirkstoffzubereitung vermischt man 1 Gewichtsteil Wirkstoff mit den angegebenen Mengen Lösungsmittel und Emulgator und verdünnt das Konzentrat mit emulgatorhaltigem Wasser auf die gewünschte Konzentration.
Maisblattscheiben (Zea mays) werden mit einer Wirkstoffzubereitung der gewünschten Konzentration gespritzt und nach dem Abtrocknen mit Raupen des Heerwurms (Spodoptera frugiperda) besetzt.Nach 7 Tagen wird die Wirkung in % bestimmt. Dabei bedeutet 100 %, dass alle Raupen abgetötet wurden; 0 % bedeutet, dass keine Raupe abgetötet wurde.

A further series concerns Boophilus microplus. The experiment in a line: Boophilus microplus test (BOOPMI injection). The format is in vivo. To be noted: 20 µg / Tier, injection into the abdomen, after 7 days; 100 % = no tick laid fertile eggs. How it is done: Boophilus microplus -Test (BOOPMI Injektion)
(§3) Lösungsmittel: Dimethylsulfoxid
Zur Herstellung einer zweckmäßigen Wirkstoffzubereitung vermischt man 10 mg Wirkstoff mit 0,5 ml Lösungsmittel und verdünnt das Konzentrat mit Wasser auf die gewünschte Konzentration. Die Wirkstofflösung wird in das Abdomen (Boophilus microplus) injiziert, die Tiere werden in Schalen überführt und in einem klimatisierten Raum aufbewahrt. Die Wirkungskontrolle erfolgt auf Ablage fertiler Eier. Nach 7 Tagen wird die Wirkung in % bestimmt. Dabei bedeutet 100%, dass keine Zecke fertile Eier gelegt hat.

A further series deals with Phaedon cochleariae. Description: Phaedon test (PHAECO spray treatment). The class given is in vivo. To be noted: sprayed Chinese cabbage leaf discs, larvae, after 7 days, 100 % = all beetle larvae killed.
Description: Phaedon-Test (PHAECO Spritzbehandlung)
as §1, §2
Chinakohlblattscheiben (Brassica pekinensis) werden mit einer Wirkstoffzubereitung der gewünschten Konzentration gespritzt und nach dem Abtrocknen mit Larven des Meerrettichblattkäfers (Phaedon cochleariae) besetzt.
Nach 7 Tagen wird die Wirkung in % bestimmt. Dabei bedeutet 100 %, dass alle Käferlarven abgetötet wurden; 0 % bedeutet, dass keine Käferlarven abgetötet wurden.

The next series relates to Ctenocephalides felis. The experiment in a line: Ctenocephalides felis oral test (CTECFE). The class given is in vivo. To be noted: 100 ppm in citrated cattle blood, oral uptake, adult fleas, after 2 days; 100 % = all fleas killed. How it is done: Ctenocephalides felis oral (CTECFE)
Lösungsmittel: 1 Gewichtsteil Dimethylsulfoxid
Zwecks Herstellung einer zweckmäßigen Wirkstoffzubereitung vermischt man 10 mg Wirkstoff mit 0,5 ml Dimethylsulfoxid. Ein Teil des Konzentrats wird mit citriertem Rinderblut verdünnt und die gewünschte Konzentration hergestellt.
20 nüchterne adulte Flöhe (Ctenocephalides felis) werden in eine Kammer eingesetzt, die oben und unten mit Gaze verschlossen ist. Auf die Kammer wird ein Metallzylinder gestellt, dessen Unterseite mit Parafilm verschlossen ist. Der Zylinder enthält die Blut-Wirkstoffzubereitung, die von den Flöhen durch die Parafilmmembran aufgenommen werden kann. Nach 2 Tagen wird die Abtötung in % bestimmt. Dabei bedeutet 100 %, dass alle Flöhe abgetötet wurden; 0 % bedeutet, dass kein Floh abgetötet wurde.

For another series, the system named is Tetranychus urticae. The class given is in vivo. Particulars: foliar, 144 h.
Description: Tetranychus-Test, OP-resistent (TETRUR Spritzbehandlung)
as §1, §2
Bohnenblattscheiben (Phaseolus vulgaris), die von allen Stadien der Gemeinen Spinnmilbe (Tetranychus urticae) befallen sind, werden mit einer Wirkstoffzubereitung der gewünschten Konzentration gespritzt.
Nach 6 Tagen wird die Wirkung in % bestimmt. Dabei bedeutet 100 %, dass alle Spinnmilben abgetötet wurden; 0 % bedeutet, dass keine Spinnmilben abgetötet wurden.

Series [2] in a line: physchem. This is another data set of the same source.
In another series the test system is Lucilia cuprina Larven. The experiment in a line: Lucilia cuprina test (LUCICU). Particulars: 100 ppm, treated horse meat, larvae, after 2 days; 100 % = all larvae killed. The format is in vivo. How it is done: Lucilia cuprina-Test (LUCICU)
as §3
Zur Herstellung einer zweckmäßigen Wirkstoffzubereitung vermischt man 10 mg Wirkstoff mit 0,5 ml Dimethylsulfoxid und verdünnt das Konzentrat mit Wasser auf die gewünschte Konzentration.Gefäße, die Pferdefleisch enthalten, das mit der Wirkstoffzubereitung der gewünschten Konzentration behandelt wurde, werden mit Lucilia cuprina Larven besetzt.
Nach 2 Tagen wird die Abtötung in % bestimmt. Dabei bedeutet 100 %, dass alle Larven abgetötet wurden; 0 % bedeutet, dass keine Larven abgetötet wurden.

Where two headings read alike, the source gives them in different places.

On to `Cn1nc(C(F)(F)C(F)(F)F)c(C(F)(F)F)c1C(=O)Nc1ccc(Cl)c(C(=O)Nc2cccnc2)c1` [Ia-2], for which the chromatographic logP in “physchem [1]” was determined as 2.69. The Wirkung with Spodoptera frugiperda came to 100%; with Boophilus microplus, 100%; in the series with Phaedon cochleariae (500 g/ha), 100%; in the series on Tetranychus urticae (500 g/ha) it was 90%. Moreover, the “Wirkung (Abtötung in %)” value with Ctenocephalides felis is listed as 100%.

As to `Cc1nc(C(F)(F)F)ccc1C(=O)Nc1ccc(Cl)c(C(=O)Nc2ccc(F)cc2)c1` [Ia-3, N-{4-Chlor-3-[(4-fluorphenyl)carbamoyl]phenyl}-2-methyl-6-(trifluormethyl)nicotinamid], the Wirkung in the series with Spodoptera frugiperda and in the series with Phaedon cochleariae (500 g/ha) was 100% each time. Besides, the chromatographic logP in the series “physchem [2]” was found to be 3.15.

In the series “physchem [2]”, `O=C(Nc1ccc(Cl)c(C(=O)Nc2ccc(F)cc2)c1)c1csc(C(F)(F)F)n1` [Ia-5] gave a chromatographic logP of 3.35.

Regarding `Cn1nc(C(F)(F)F)c(Br)c1C(=O)Nc1ccc(Cl)c(C(=O)Nc2ccc(Cl)nc2)c1` [Ia-7], the chromatographic logP in the series “physchem [2]” amounted to 3.42. The Wirkung in the series with Phaedon cochleariae (100 g/ha) is 100%; in the series on Tetranychus urticae (100 g/ha), 80%.

`Cn1nc(C(F)(F)C(F)(F)F)c(C(F)(F)F)c1C(=O)Nc1ccc(Cl)c(C(=O)Nc2ccccn2)c1` [Ia-8, N-[4-Chlor-3-(pyrid-2-yl-carbamoyl)phenyl]-1-methyl-3-(pentafluorethyl)-4-(trifluormethyl)-1H-pyrazol-5-carboxamid] displayed a chromatographic logP in “physchem [1]” of 3.53. The “Wirkung (Abtötung in %)” value in the series on Lucilia cuprina Larven and in the series with Ctenocephalides felis was 100% throughout. Moreover, the Wirkung is 100% in the series on Spodoptera frugiperda, 100% in the series on Boophilus microplus, 100% with Phaedon cochleariae (500 g/ha) and 80% in the series on Tetranychus urticae (500 g/ha).

With `Cc1nc(C(F)(F)F)ccc1C(=O)Nc1ccc(Cl)c(C(=O)Nc2cccc(Cl)c2)c1` [Ia-9], in the series “physchem [2]”, the chromatographic logP stood at 3.6. Besides, the Wirkung with Phaedon cochleariae (500 g/ha) is reported as 80%.

As to `O=C(Nc1ccc(F)cc1)c1cc(NC(=O)c2cnc(C(F)(F)C(F)(F)F)nc2C(F)F)ccc1Cl` [Ia-10], the chromatographic logP in the series “physchem [2]” came to 3.67. The Wirkung in the series with Phaedon cochleariae (500 g/ha) was determined as 100%.

Turning to `Cn1nc(C(F)(F)C(F)(F)F)c(C(F)(F)F)c1C(=O)Nc1ccc(Cl)c(C(=O)Nc2ccc(Cl)nc2)c1` [Ia-11], the chromatographic logP in “physchem [1]” came out at 3.68. In addition, the results for the “Wirkung (Abtötung in %)” value in the series on Lucilia cuprina Larven and in the series on Ctenocephalides felis were 100% and 80%, respectively. Besides, the Wirkung in the series with Spodoptera frugiperda turned out to be 100%; in the series with Boophilus microplus, 100%; in the series with Phaedon cochleariae (500 g/ha) it was 100%; in the series on Tetranychus urticae (500 g/ha), 90%.

The compound `O=C(Nc1ccc(Cl)c(C(=O)Nc2cccc(Cl)c2)c1)c1csc(C(F)(F)F)n1` [Ia-14] showed a chromatographic logP in the series “physchem [2]” of 3.82.

Turning to `Cn1nc(C(F)(F)C(F)(F)F)c(C(F)(F)F)c1C(=O)Nc1ccc(Cl)c(C(=O)Nc2ccccc2)c1` [Ia-15], in the series “physchem [1]”, the chromatographic logP stood at 3.84. Besides, the “Wirkung (Abtötung in %)” value in the series on Lucilia cuprina Larven and in the series with Ctenocephalides felis was 100% each time. Besides, the Wirkung with Spodoptera frugiperda is 100%; in the series on Boophilus microplus, 100%; with Phaedon cochleariae (500 g/ha), 100%; in the series on Tetranychus urticae (500 g/ha), 90%.

The compound `Cn1nc(C(F)(F)C(F)(F)F)c(C(F)(F)F)c1C(=O)Nc1ccc(Cl)c(C(=O)Nc2ccccc2F)c1` [Ia-18, N-{4-Chlor-3-[(2-fluorphenyl)carbamoyl]phenyl}-1-methyl-3-(pentafluorethyl)-4-(trifluormethyl)-1H-pyrazol-5-carboxamid] yielded a chromatographic logP in “physchem [1]” of 3.94. Besides, the Wirkung in the series with Spodoptera frugiperda, in the series on Boophilus microplus, in the series with Phaedon cochleariae (500 g/ha) and in the series on Tetranychus urticae (500 g/ha) was 100% each time. Further, in the series on Ctenocephalides felis, the “Wirkung (Abtötung in %)” value turned out to be 100%.

Regarding `O=C(Nc1ccc(F)cc1)c1cc(NC(=O)c2cnc(C(F)(F)C(F)(F)F)nc2C(F)(F)F)ccc1Cl` [Ia-20], the Wirkung with Spodoptera frugiperda and in the series on Phaedon cochleariae (500 g/ha) was 100% in each case. The chromatographic logP in the series “physchem [2]” is 3.98.

Regarding `O=C(Nc1ccc(F)cc1)c1cc(NC(=O)c2cnc(C(F)(F)C(F)(F)F)nc2C2CC2)ccc1Cl` [Ia-24], the Wirkung in the series on Spodoptera frugiperda and with Phaedon cochleariae (500 g/ha) was 100% throughout. Besides, the chromatographic logP in “physchem [2]” came out at 4.08.

With `O=C(Nc1cccc(Cl)c1)c1cc(NC(=O)c2cnc(C(F)(F)C(F)(F)F)nc2C(F)F)ccc1Cl` [Ia-25], the Wirkung in the series on Spodoptera frugiperda and in the series with Phaedon cochleariae (500 g/ha) was 100% in each case. Besides, the chromatographic logP in “physchem [2]” is 4.08.

`Cc1cc(NC(=O)c2cc(NC(=O)c3c(C(F)(F)F)c(C(F)(F)C(F)(F)F)nn3C)ccc2Cl)ccc1F` [Ia-29] came in with a chromatographic logP in “physchem [1]” of 4.23. Besides, the figures for the “Wirkung (Abtötung in %)” value in the series on Lucilia cuprina Larven and in the series on Ctenocephalides felis were 100% and 90%, respectively. For the same compound, the Wirkung in the series on Spodoptera frugiperda, in the series with Boophilus microplus and in the series with Phaedon cochleariae (500 g/ha) was 100% throughout.

In the series “physchem [1]”, `Cn1nc(C(F)(F)C(F)(F)F)c(C(F)(F)F)c1C(=O)Nc1ccc(Cl)c(C(=O)Nc2ccccc2Cl)c1` [Ia-31] yielded a chromatographic logP of 4.28. Moreover, the Wirkung in the series on Spodoptera frugiperda and with Phaedon cochleariae (500 g/ha) was 100% each time. In addition, the “Wirkung (Abtötung in %)” value with Ctenocephalides felis is reported as 95%.

In the case of `O=C(Nc1cccc(Cl)c1)c1cc(NC(=O)c2cnc(C(F)(F)C(F)(F)F)nc2C(F)(F)F)ccc1Cl` [Ia-32, N-{4-Chlor-3-[(3-chlorphenyl)carbamoyl]phenyl}-2-(pentafluorethyl)-4-(trifluormethyl)pyrimidin-5-carboxamid], the Wirkung with Spodoptera frugiperda and in the series with Phaedon cochleariae (500 g/ha) was 100% in each case. This compound also had a chromatographic logP in “physchem [2]” of 4.32.

As to `O=C(Nc1ccc(F)cc1)c1cc(NC(=O)c2cnc(C(F)(F)C(F)(F)F)nc2C(F)(F)C(F)(F)F)ccc1Cl` [Ia-34], the figures for the Wirkung with Spodoptera frugiperda, in the series with Phaedon cochleariae (500 g/ha) and in the series with Tetranychus urticae (500 g/ha) were 100%, 100% and 80%, respectively. The chromatographic logP in “physchem [2]” came out at 4.36.

Compound `Cn1nc(C(F)(F)C(F)(F)F)c(C(F)(F)F)c1C(=O)Nc1ccc(Cl)c(C(=O)Nc2ccc(C(F)(F)F)cc2)c1` [Ia-36] displayed a chromatographic logP in the series “physchem [1]” of 4.4. Besides, the “Wirkung (Abtötung in %)” value with Lucilia cuprina Larven turned out to be 90%. Besides, the Wirkung in the series with Spodoptera frugiperda, in the series with Boophilus microplus and in the series with Phaedon cochleariae (500 g/ha) was 100% in each case.

`Cn1nc(C(F)(F)C(F)(F)F)c(Br)c1C(=O)Nc1ccc(Cl)c(C(=O)Nc2ccc(Cl)cc2)c1` [Ia-38]: in “physchem [2]”, the chromatographic logP is 4.43. The Wirkung in the series with Phaedon cochleariae (500 g/ha) came to 80%.

For the compound `O=C(Nc1cccc(Cl)c1)c1cc(NC(=O)c2cnc(C(F)(F)C(F)(F)F)nc2C2CC2)ccc1Cl` [Ia-40], the Wirkung in the series on Spodoptera frugiperda stood at 100%. The compound further gave a chromatographic logP in “physchem [2]” of 4.54.

Take `Cn1nc(Cn2nc(C(F)(F)C(F)(F)F)cc2C(F)(F)C(F)(F)F)c(C(F)(F)F)c1C(=O)Nc1ccc(Cl)c(C(=O)Nc2ccc(F)cc2)c1` [Ia-43]: the Wirkung in the series on Spodoptera frugiperda and in the series with Phaedon cochleariae (500 g/ha) was 100% each time. In addition, in “physchem [2]”, the chromatographic logP was found to be 4.99.

For the compound `Cn1nc(C(F)(F)C(F)(F)F)c(C(F)(F)F)c1C(=O)Nc1ccnc(C(=O)Nc2ccc(F)cc2)c1` [Ib-1, N-[2-(4-fluor-phenylcarbamoyl)pyrid-4-yl]-1-methyl-3-(pentafluorethyl)-4-(trifluormethyl)-1H-pyrazol-5-carbonsäureamid], the chromatographic logP in “physchem [2]” was found to be 4.3.

`Cn1nc(C(F)(F)C(F)(F)F)c(C(F)(F)F)c1C(=O)Nc1ccc(Br)c(C(=O)Nc2ccc(F)cc2)n1` [Ic-1, N-[3-Brom-2-(4-fluor-phenylcarbamoyl)pyrid-6-yl]-1-methyl-3-(pentafluorethyl)-4-(trifluormethyl)-1H-pyrazol-5-carbonsäureamid]: the Wirkung with Spodoptera frugiperda and in the series on Phaedon cochleariae (500 g/ha) was 100% each time. In the series “physchem [2]”, this compound came in with a chromatographic logP of 4.45.
